Measured values published in patent US5395841A, “4-benzylpiperidines for treating phychosis” (Ferrer Internacional, S.A., priority 1992, dated 1995).
Structures can show the parent of a compound that is named as a salt.

Target: sigma-receptor (Cavia porcellus, UniProt Q60492)
Experiment: Sigma-receptor binding ([3H]3-PPP displacement, membranes of guinea pig total brain)
Conditions: 2 nM (+)[3H]3-PPP, guinea pig total brain membrane, 90 min at 25° C., pH 8.5 TRIS.HCl, eleven concentrations; read-out: IC50 (inhibitory concentration 50%)

Sequence of sigma-receptor (Q60492 whole entry): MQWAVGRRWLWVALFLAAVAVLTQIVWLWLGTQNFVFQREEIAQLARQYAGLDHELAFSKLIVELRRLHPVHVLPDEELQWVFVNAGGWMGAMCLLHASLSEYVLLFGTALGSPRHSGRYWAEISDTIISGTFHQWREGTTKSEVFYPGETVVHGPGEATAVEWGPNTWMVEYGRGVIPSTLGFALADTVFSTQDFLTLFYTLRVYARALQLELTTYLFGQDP

SMILES	IC50 [nM]
Fc1ccc(CC2CCN(CCCC(c3ccc(F)cc3)c3ccc(F)cc3)CC2)cc1 [Example 9, 4-(p-Fluorobenzyl)-1-[4,4-bis(p-fluorophenyl)butyl]piperidine tribenzoate]	72
Fc1ccc(CC2CCN(CCCOc3ccc(F)cc3)CC2)cc1 [Example 8, 4-(p-Fluorobenzyl)-1-[3-(p-fluorophenoxy)propyl]piperidine dibenzoate]	4.5
Fc1ccc(CC2CCN(CCCOc3ccc(F)cc3)CC2)cc1 [Example 11, 4-(p-Fluorobenzyl)-1-[3-(p-fluorophenoxy)propyl]piperidine hydrochloride]	4.2
CCCN1CCC(Cc2ccc(F)cc2)CC1 [Example 1, 4-p-Fluorobenzyl-1-propylpiperidine hydrochloride]	2.95
OC(CCCN1CCC(Cc2ccc(F)cc2)CC1)c1ccc(F)cc1 (centres unmarked) [Example 7, 4-(p-Fluorobenzyl)-1-(4-fluorophenyl-4-hydroxy)butylpiperidine hydrochloride]	8.8

Now those with a lower IC50, led by results:

IC50 [nM]	SMILES
2.4	O=C(CCCN1CCC(Cc2ccc(F)cc2)CC1)c1ccc(F)cc1 [Example 5, 4-p-Fluorobenzyl-1-(4-p-fluorophenyl-4-oxo)butylpiperidine hydrochloride]
1.89	O=C1CC2(CCCC2)CC(=O)N1CCCCN1CCC(Cc2ccc(F)cc2)CC1 [Example 10, 8-[4-[4-(p-Fluorobenzyl)-1-piperidinyl]butyl]-8-azaspiro[4,5] decane-7,9-dione hydrochloride]
1.49	OC(CCCN1CCC(Cc2ccccc2)CC1)c1ccc(F)cc1 (centres unmarked) [Example 6, 4-Benzyl-1-(4-hydroxi-4-p-fluorophenyl)butylpiperidine hydrochloride]
